Molecules are shown by their SMILES.

The test system of one assay is CT-26 flank tumors. As to the kind of experiment: CT-26 flank tumor model. The class given is in vivo, mouse. As to conditions: acyclovir 2 mg/ml with dextran sulfate 100 μg/ml and 1×10^7 pfu NV1020. On the procedure: Different modes of delivery were also examined to determine the efficacy of systemic delivery of HSV on tumor growth. Flank tumors were established in mice by subcutaneous injection of CT-26 cancer cells. The mice were then administered 1×10^7 pfu of NV1020 either intratumorally or systemically by tail vein. Tumor growth rates were then assessed by measuring the tumor volume biweekly (FIG. 8).
Mice were anesthetized using ketamine (70 mg/kg) and xylazine (10 mg/kg). CT-26 cells (5×10^4 cells resuspended in 100 μl of PBS) were injected subcutaneously into the right flank of each mouse, using a 26-gauge needle. The cells formed a tumor, which was allowed to grow to a size of approximately 100 to 150 mm^3. Injections of the desired therapy were then initiated. Tumor volumes were generally measured biweekly. The animals were sacrificed once the tumor volume reached 1500 mm^3.
Tail vein administration of the desired therapy was carried out using techniques commonly known in the art.

Another assay deals with CT-26 cells. Briefly: CT-26 morphology and cell growth in culture. The class given is cell-based. As to conditions: 72 hours. The procedure: To better understand the in vivo effects of dextran sulfate or dextran in combination with HSV, the effects of dextran sulfate on cell morphology and cell proliferation were evaluated in a cell culture model. CT-26 cells were treated with 100 μg/ml of dextran sulfate or were left untreated. After 48 hours, cell numbers and morphology were examined (FIG. 15). […] In the presence of dextran sulfate, CT-26 cells appeared more evenly spread across tissue culture dishes (panel B) as compared to the “clumped” appearance of CT-26 cells in the absence of dextran sulfate (panel A).
The effect of dextran sulfate, acyclovir, or a combination of both dextran and acyclovir were also examined for their effects on cell growth in vitro. Cultured CT-26 cells were administered dextran sulfate (100 μg/ml), acyclovir (2 mg/ml), both dextran sulfate and acyclovir, or were left untreated (control). CT-26 cells were counted at various time points following addition each formulation.

Turning to `Nc1nc2c(ncn2COCCO)c(=O)[nH]1` [acyclovir], in the assay with CT-26 flank tumors, the tumor growth result is “reduced tumor growth”. In addition, the “growth of the cells (number of cells/ml) compared to untreated cells” value with CT-26 cells (acyclovir 2 mg/ml together with dextran sulfate 100 μg/ml) and with CT-26 cells (acyclovir 2 mg/ml) was “did not vary significantly” throughout.

These data come from patent US20040166092A1, “Use of viral vectors and charged molecules for gene therapy” (priority 1999, published 2004).
